From patent US8912146B2, “Derivatives of APF and methods of use” (University of Maryland, Baltimore, priority 2008, dated 2014)
“Also recorded” adds a separate entry of the source. *1 amine or outer side, *2 acyl side, *3 side chain or, on linkers, in order; H or OH if unused. Where a SMILES comes first, the peptide text is derived from it. [ ]: non-standard residue; d: D form. The star is where a group is joined. ξ: configuration not given here. X1 = CC(=O)NC1C(O[C@@H]2OC(CO)[C@H](O)C(O)C2O)[C@@H](O)C(CO)O[C@@H]1*; X2 = CC(C)(C)OC1C[C@@H](C(=O)[*:2])N([*:1])C1; Thr(3ξ) = CC(O)[C@H](N)C(=O)O; ξL = CC(C)CC(N)C(=O)O; ξV = CC(C)C(N)C(=O)O; ξA = CC(N)C(=O)O

How the values were obtained:
[1] = system: primary normal human bladder epithelial cells; conditions: Keay et al., 2004; cited from earlier work
[2] = system: primary normal human bladder epithelial cells; test: 3H-thymidine incorporation (antiproliferative activity) in primary normal bladder epithelial cells; format: cell-based; conditions: for % of activity: relative to 1 (as-APF) run on the same plate, from IC50, inactive = no significant activity at <25 μM
Procedure: Cell Culture. Cystoscopy was performed under general anesthesia, and 4-mm^2 pieces of transitional epithelium with submucosal bladder tissue were obtained for the growth of primary bladder epithelial cells, as previously described (Keay et al., 1996; 2004). Primary normal bladder epithelial cells were propagated in DMEM-F12 (Media-Tech, Herndon Va.) with 10% heat-inactivated fetal bovine serum (FBS), 1% antibiotic/antimycotic solution, 1% L-glutamine, 0.25 units/mL insulin (all from Sigma, St. Louis, Mo.), and 5 ng/mL hEGF (R&D Systems, Minneapolis, Minn.) at 37° C. in a 5% CO2 atmosphere and characterized by binding of AE-1/AE-3 pancytokeratin antibodies (Signet, Dedham, Mass.).
^3H-Thymidine Incorporation. Cell proliferation was measured by ^3H-thymidine incorporation into explanted normal human bladder epithelial cells, plating 1.5×10^4 cells/well onto a 96 well cell culture plate (VWR 29442-054), in 150 ul/well MEM containing 10% heat inactivated FBS, 1% antibiotic/antimycotic solution, and 1% L-glutamine (all from Sigma), resulting in a doubling time of 48-72 hours, as previously described (Keay et al., 1996; 2004). Each purified lyophilized synthetic APF congener was resuspended in acetonitrile/distilled water (1:1), and applied to the cells in serum-free MEM (containing only L-glutamine and antibiotics/antimycotics); cell controls received acetonitrile/distilled water diluted in serum-free MEM alone. Cells were then incubated at 37° C. in a 5% CO2 atmosphere for 48 hours. The cell contents harvested and methanol-fixed onto glass fiber filter paper, and the amount of radioactivity incorporated determined. Significant inhibition of ^3H-thymidine incorporation was defined as a mean decrease in counts per minute of greater than 2 standard deviations from the mean of control cells for each plate. Inhibition of cell proliferation was determined from a semi-log plot of dose-response for each APF derivative; IC50 was determined as the concentration of each derivative that caused a mean 50% inhibition of thymidine incorporation as compared to the mean of untreated cell controls.
Statistical Analysis. The thymidine incorporation (APF biological activity) assay was performed in triplicate on at least two separate runs, with 1 run simultaneously in triplicate on the same plate. The significance of the difference between mean values for each congener vs. mean values for compound 1 was determined by an analysis of variance.

[3] = system: carcinoma cell lines (WiDr, HeLa, PANC-1, CaOv3, BT474, ACHN, T24, A549); test: 3H-thymidine incorporation in carcinoma cell lines; format: cell-based; conditions: 48 hrs; for inhibition of carcinoma cell line proliferation: compared to cell medium alone (p<0.00001)
Procedure: Ovarian carcinoma (Caov-3), prostate carcinoma (LNCaP), melanoma (Hs839.T), pancreatic carcinoma (PANC-1), bladder carcinoma (T24, RT4 and TCCSuP), kidney carcinoma (ACHN), cervical carcinoma (HeLa), lung carcinoma (A549), colon carcinoma (WiDr), and breast carcinoma (Bt-474) cells were all purchased from the American Type Culture Collection (ATCC). Caov-3, HS839.T, PANC-1, and BT-474 cells were grown in DMEM medium (with 4 mM L-glutamine—Gibco BRL) containing 10% heat-inactivated fetal calf serum, 4.5 g/L glucose, 1.5 g/L sodium bicarbonate and 1% antibiotic/antimycotic solution (all supplements from Sigma except sodium bicarbonate which is from Gibco BRL). LNCaP cells were grown in RPMI medium (with 2 mM L-glutamine—Gibco BRL) containing10% heat-incativated fetal calf serum, 10 mM HEPES buffer, 1 mM sodium pyruvate, 4.5 g/L glucose, 1.5 g/L sodium bicarbonate, and 1% antibiotic/antimycotic solution (all supplements from Sigma except sodium bicarbonate which is from Gibco BRL). […]
Cancer (carcinoma or melanoma) cell proliferation was measured by ^3H-thymidine incorporation into each type of cancer cell, plating 3.0×10^3 cells/well (A549 cells) or 1.5×10^3 cells/well (all other cancer cells) onto a 96 well cell culture plate (VWR 29442-054), in 150 ul/well of the respective normal growth medium for each cell type (see above). […]
(§1) Significance of the difference in mean values between groups was determined by an analysis of variance.
(§2) Cell proliferation was measured by ^3H-thymidine incorporation into each cell type, plating cells in […] of their respective medium (see above) onto a 96-well cell culture plate (Corning, N.Y.) at a predetermined optimal cell density for APF inhibition of cell proliferation: Caov-3, PANC-1, T24, HeLa, and HS839.T cells were plated at a density of 1.5×10^3 cells/well; A549 cells were plated at a density of 3×10^3 cells/well. […] Cells were then incubated at 37° C. in a 5% CO2 atmosphere for 48 hours, after which cell contents were harvested, methanol-fixed onto glass fiber filter paper, and the amount of radioactivity incorporated determined. […]

Hs839.T melanoma cells = test: 3H-thymidine incorporation in melanoma cells; format: cell-based; conditions: for inhibition of melanoma cell proliferation: compared to cell medium alone (p<0.00001)
Procedure: Ovarian carcinoma (Caov-3), prostate carcinoma (LNCaP), melanoma (Hs839.T), pancreatic carcinoma (PANC-1), bladder carcinoma (T24, RT4 and TCCSuP), kidney carcinoma (ACHN), cervical carcinoma (HeLa), lung carcinoma (A549), colon carcinoma (WiDr), and breast carcinoma (Bt-474) cells were all purchased from the American Type Culture Collection (ATCC). Caov-3, HS839.T, PANC-1, and BT-474 cells were grown in DMEM medium (with 4 mM L-glutamine—Gibco BRL) containing 10% heat-inactivated fetal calf serum, 4.5 g/L glucose, 1.5 g/L sodium bicarbonate and 1% antibiotic/antimycotic solution (all supplements from Sigma except sodium bicarbonate which is from Gibco BRL). LNCaP cells were grown in RPMI medium (with 2 mM L-glutamine—Gibco BRL) containing10% heat-incativated fetal calf serum, 10 mM HEPES buffer, 1 mM sodium pyruvate, 4.5 g/L glucose, 1.5 g/L sodium bicarbonate, and 1% antibiotic/antimycotic solution (all supplements from Sigma except sodium bicarbonate which is from Gibco BRL). T24 and RT4 cells were grown in McCoy's 5A medium (Gibco BRL) containing 10% heat-inactivated fetal calf serum, 1% L-glutamine, 2.2 g/L sodium bicarbonate, and 1% antibiotic/antimycotic solution (all supplements from Sigma except sodium bicarbonate which is from Gibco BRL). TCCSuP, HeLa, and WiDr cells were grown in MEM (Gibco BRL) containing 10% heat-inactivated fetal calf serum, 1% L-glutamine, 1 mM sodium pyruvate, and 1% antibiotic/antimycotic solution (all supplements from Sigma). ACHN cells were grown in the same medium as TCCSuP and HeLa cells with the exception that it also contained 1.5 g/L sodium bicarbonate (Gibco BRL). A549 cells were grown in F12 medium (Gibco BRL) containing 10% heat-inactivated fetal calf serum, 1% L-glutamine, and 1% antibiotic/antimycotic solution (all supplements from Sigma).
Cancer (carcinoma or melanoma) cell proliferation was measured by ^3H-thymidine incorporation into each type of cancer cell, plating 3.0×10^3 cells/well (A549 cells) or 1.5×10^3 cells/well (all other cancer cells) onto a 96 well cell culture plate (VWR 29442-054), in 150 ul/well of the respective normal growth medium for each cell type (see above). All APF congeners were resuspended as described for normal bladder epithelial cells, except using the specific serum-free medium appropriate for each cell type, and the remainder of the assay was performed as described for normal bladder cells, above.
as §1
as §2, with “cells/well. On the next day, cell growth medium was removed and replaced with serum-free medium appropriate for each cell type.” for “cells/well.”

[4] = system: Akt/GSK3/beta catenin signaling in T24 bladder carcinoma cells; test: Western blot / qRT-PCR of Akt/GSK3/beta catenin signaling in T24 cells; format: cell-based; conditions: 50 nM
Procedure: Gene expression was determined by quantitative RT-PCR, and specific protein expression or phosphorylation was determined by Western blot. p53 mRNA and protein expression served as positive controls for APF activity. Beta actin expression served as a standard control for Western blot analyses (see FIGS. 38-40).

[5] = nonelectroporated T24 control cells, p<0.05

| Compound | activity in biological antiproliferation assays, previously determined [1] | antiproliferative activity compared with as-APF (1), in words [2] | % of activity [2] | also measured |
| --- | --- | --- | --- | --- |
| Neu5Ac α 2-3Galβ1-4-GlcNAcα-O-TVPAAVVVA | essentially equipotent |  |  |  |
| Neu5Acα2-3Galβ1-4GlcNAcα-O-SLPAAVVVA | essentially equipotent |  |  |  |
| Galβ1-3GalNAcβ-O-TVPAAVVVA | completely inactive |  |  |  |
| Galβ1-4GlcNAcα-O-SLPAAVVVA | essentially equipotent |  |  |  |
| Neu5Acα2-3Galβ1-3GalNAcα-O-TVPAAVVVA | essentially equipotent |  |  |  |
| CC(=O)NC1C(O[C@@H]2OC(CO)[C@H](O)C(O)C2O)[C@@H](O)C(CO)O[C@@H]1OC(C)[C@H](N)C(=O)NC(C(=O)N1CCC[C@H]1C(=O)NC(C)C(=O)N[C@@H](C)C(=O)NC(C(=O)NC(C(=O)NC(C(=O)N[C@@H](C)C(=O)O)C(C)C)C(C)C)C(C)C)C(C)C (some centres unmarked) [Derivative 27] |  | complete inactivation of antiproliferative activity | inactive |  |
| CC(=O)NC1C(O[C@@H]2OC(CO)[C@H](O)C(O)C2O)[C@@H](O)C(CO)O[C@@H]1OC(C)[C@H](N)C(=O)NC(C(=O)N1CCC[C@H]1C(=O)NC(C)C(=O)N[C@@H](CO)C(=O)NC(C(=O)N[C@H](C(=O)NC(C(=O)N[C@@H](CO)C(=O)O)C(C)C)C(C)C)C(C)C)C(C)C (some centres unmarked) [Derivative 23] (H-[Thr(3ξ)](X1)[ξV]P[ξA]S[ξV]V[ξV]S-OH) |  | partial inactivation | 0.2% |  |
| TVPAAVVVA [nonglycosylated nonapeptide, reference compound] | completely inactive |  |  | inhibition of carcinoma cell line proliferation ([3]; listed as negative control peptide): no effect; also recorded: none of these cell lines was inhibited; inhibition of melanoma cell proliferation (Hs839.T melanoma cells; 48 hrs, listed as negative control peptide): no effect; also recorded: none of these cell lines was inhibited |
| CC(=O)NC1C(O[C@@H]2OC(CO)[C@H](O)C(O)C2O)[C@@H](O)C(CO)O[C@@H]1OC(C)[C@H](N)C(=O)NC(C(=O)N1CCC[C@H]1C(=O)NC(C)C(=O)N[C@@H](C)C(=O)NCC(=O)NCC(=O)NCC(=O)N[C@@H](C)C(=O)O)C(C)C (some centres unmarked) [Derivative 26] (H-[Thr(3ξ)](X1)[ξV]P[ξA]AGGGA-OH) |  | complete inactivation of antiproliferative activity | 0.01% |  |
| CC(=O)NC1C(O[C@@H]2OC(CO)[C@H](O)C(O)C2O)[C@@H](O)C(CO)O[C@@H]1OC(C)[C@H](N)C(=O)NC(C(=O)N1CCC[C@H]1C(=O)NC(C)C(=O)N[C@@H](C)C(=O)NC(C(=O)N[C@H](C(=O)NC(C(=O)N[C@@H](C)C(=O)O)C(C)C)C(C)C)C(C)C)C(C)C (some centres unmarked) [Derivative 1, Galβ1-3GalNAcα-O-TVPAAVVVA] | essentially equipotent |  |  | inhibition of carcinoma cell line proliferation [3]: significantly inhibited proliferation; IC50 in carcinoma cell lines ([3]; listed as as-APF): low to mid nanomolar range; inhibition of melanoma cell proliferation (Hs839.T melanoma cells; 48 hrs): significantly inhibited proliferation; IC50 in melanoma cells (Hs839.T melanoma cells; 48 hrs, listed as as-APF): low to mid nanomolar range; inhibitor concentration at which significant inhibition occurred, melanoma cells vs carcinoma cells (Hs839.T melanoma cells; listed as as-APF): 1-2 orders of magnitude higher; inhibitor concentration at which significant inhibition occurred, melanoma cells vs carcinoma cells (Hs839.T melanoma cells; listed as asialo-APF): 2 orders of magnitude higher; mRNA and protein expression of total Akt, GSK3beta, beta catenin ([4]; T24 cells, p>0.05): neither mRNA nor protein expression of total Akt, GSK3beta, or beta catenin changed significantly; Akt phosphorylation (serine 473 and threonine 308) [4, 5]: significantly decreased; GSK3beta phosphorylation (tyrosine 216) [4, 5]: significantly decreased; beta catenin phosphorylation (serine 33/37 and threonine 41) [4, 5]: significantly increased; beta catenin phosphorylation (serine 45) [4, 5]: significantly decreased |
| CC(=O)NC1C(O[C@@H]2OC(CO)[C@H](O)C(O)C2O)[C@@H](O)C(CO)O[C@@H]1OC(C)[C@H](N)C(=O)NC(C(=O)N1CC(OC(C)(C)C)C[C@H]1C(=O)NC(C)C(=O)N[C@@H](C)C(=O)NC(C(=O)N[C@H](C(=O)NC(C(=O)N[C@@H](C)C(=O)O)C(C)C)C(C)C)C(C)C)C(C)C (some centres unmarked) [Derivative 13] (H-[Thr(3ξ)](X1)[ξV][X2][ξA]A[ξV]V[ξV]A-OH) |  | 2-3 orders of magnitude decrease | 0.2% |  |
| CC(=O)NC1C(O[C@@H]2OC(CO)[C@H](O)C(O)C2O)[C@@H](O)C(CO)O[C@@H]1OC[C@H](N)C(=O)NC(CC(C)C)C(=O)N1CCC[C@H]1C(=O)NC(C)C(=O)N[C@@H](C)C(=O)NC(C(=O)N[C@H](C(=O)NC(C(=O)N[C@@H](C)C(=O)O)C(C)C)C(C)C)C(C)C (some centres unmarked) [Derivative 2] (H-S(X1)[ξL]P[ξA]A[ξV]V[ξV]A-OH) |  | two orders of magnitude loss of potency | 1% |  |
| CC(=O)NC1C(O[C@@H]2OC(CO)[C@H](O)C(O)C2O)[C@@H](O)C(CO)O[C@@H]1OC[C@H](N)C(=O)NC(C(=O)N1CCC[C@H]1C(=O)NC(C)C(=O)N[C@@H](C)C(=O)NC(C(=O)N[C@H](C(=O)NC(C(=O)N[C@@H](C)C(=O)O)C(C)C)C(C)C)C(C)C)C(C)C (some centres unmarked) [Derivative 3] (H-S(X1)[ξV]P[ξA]A[ξV]V[ξV]A-OH) |  | 4 orders of magnitude | 0.01% |  |
